Like-named read-outs stand apart in the source and are kept apart here. Marks after values point to notes of the source that are not given here.
Columns and labels:
[1] = target: T1, acetylcholinesterase (AChE) (Electrophorus electricus, UniProt O42275); test: Bioaffinity ultrafiltration assay with acetylcholinesterase; format: binding; details: components of EtOAc extract; EF = (A1 − A2)/A0 × 100%
T1 construct: purchased Sigma-Aldrich (St. Louis, MO, USA)
Procedure: (§1) The bioaffinity ultrafiltration assay was conducted using a previously described procedure. […] The reaction was conducted at 37 °C for 30 min, then centrifuged using a 14,000× g ultracentrifuge filter at 30 °C for 15 min. The filtrate was removed and 200 μL of Tris-HCl buffer was added to the ultracentrifuge filter and centrifuged at 14,000× g for 15 min at 30 °C. The previous step was repeated 3 times and the filtrate was removed. Then, 200 μL of methanol was added to the ultracentrifuge filter and centrifuged at 14,000× g for 15 min at 30 °C. The previous step was repeated 3 times and the filtrate was collected. The filtrate was concentrated and then dissolved in 50 μL MeOH for HPLC analysis. In addition, the processing of iNOS-ligand complexes was conducted following previously reported methods, while inducible nitric oxide synthase bioaffinity ultrafiltration assays were performed, as detailed above.
(§2) The binding affinity of compounds and enzymes using enrichment factor (EF) was assessed, and was counted as follows: A1, A2, and A0 represent the peak areas of picked compounds acquired from the extracts incubated with activated, inactivated, and no acetylcholinesterase, respectively. EF (%) = (A1 − A2)/A0 × 100%

[2] = target: T2, inducible nitric oxide synthase (iNOS) (Mus musculus, UniProt P29477); test: Bioaffinity ultrafiltration assay with inducible nitric oxide synthase; format: binding; details: components of EtOAc extract; EF = (A1 − A2)/A0 × 100%
T2 construct: purchased Sigma-Aldrich (St. Louis, MO, USA)
Procedure: as §1, §2

[3] = DPPH radical scavenging activity; details: 50% free radical scavenging; for EC50: isolated components, read-out: SC50 DPPH
Procedure: The DPPH radical scavenging effect was measured based on the reported method. BHT was applied as a positive control. DPPH solution was prepared diluted by EtOH to reach the final concentration of 400 µM. Different concentrations (400, 200, 100, 50, and 25 µg/mL) of extracts or compounds (100 µL) were mixed with DPPH solution (100 µL) and incubated for 30 min at room temperature and in darkness, and the absorbance of the mixture was measured at 520 nm.

[4] = ABTS cation radical scavenging activity; details: 50% free radical scavenging; for EC50: isolated components, read-out: SC50 ABTS
Procedure: The ABTS cation radical scavenging effect was measured, as previously described by. […] The working solution was diluted by EtOH to reach the absorbance of 0.70 ± 0.02 at 740 nm for further experiments. Different concentrations (400, 200, 100, 50, and 25 µg/mL) of extracts or compounds (10 µL) were mixed with the working solution (190 μL). The mixture was incubated at room temperature for 6 min, and the antioxidant activity of the mixture was determined by the decrease in absorbance measured at 740 nm.

[5] = Superoxide radical scavenging activity; details: 50% free radical scavenging; for EC50: isolated components, read-out: SC50 Superoxide
Procedure: A superoxide radical scavenging assay was performed based on previously reported methods. The superoxide radical was generated in 16 mM Tris-HCl buffer (pH 8.0) containing 50 μL of NBT (300 μM), 50 μL of PMS (120 μM), and 50 μL of different concentrations of the test sample. The reaction was initiated by adding 50 μL of NADH (468 μM) solution to the mixture. After incubating at room temperature for 5 min, the activity of samples was determined by the decrease in absorbance measured at 560 nm against the sample concentration.

[6] = Ferric reducing antioxidant power (FRAP); details: mM Trolox equivalents per g
Procedure: FRAP was measured by the method reported in the previous literature. The working solution was mixed with acetate buffer (pH 3.6), ferric chloride solution (20 mM), and TPTZ solution (10 mM TPTZ in 40 mM HCl) at a proportion of 10:1:1, respectively, and freshly prepared before being used. A total of 900 μL of the working solution was warmed to 37 °C and then mixed with 100 μL of the diluted sample, blank or standard, in a microcentrifuge tube. The tubes were vortexed in a dry bath at 37 °C for 40 min. The absorbance was measured at 593 nm. The standard curve was linear between 0 and 100 mM Trolox. Results were expressed as mM TE/g dry weight. Additional dilution was needed if the FRAP value measured was over the linear range of the standard curve.

α-glucosidase = test: α-Glucosidase inhibitory activity assay; format: biochemical; details: isolated compounds
Procedure: To test the anti-α-glucosidase effect of each solvent extract and each component, a previously described method was used. […] The α-glucosidase solution was diluted to 1 U/mL with 0.1 M sodium phosphate buffer (pH 6.8). Various concentrations of extract or compound (100 µL) and α-glucosidase solution (20 µL) were mixed. Subsequently, 0.53 mM p-NPG (380 µL) was added and incubated at 37 °C for 40 min. The reaction was stopped by adding 500 μL of 0.1 M Na2CO3 solution, and the absorbance was detected at 405 nm.
α-glucosidase inhibition (%) was counted as follows (Asample and Acontrol represent the absorbance of the tested sample and control, respectively):α-glucosidase inhibition (%) = (Acontrol − Asample)/Acontrol × 100%

[7] = target: T1, acetylcholinesterase (AChE); test: biochemical
Procedure: The acetylcholinesterase inhibitory assay was carried out applying a method described in reference. Briefly, 0.1 M sodium phosphate buffer (pH 8.0, 140 μL), DTNB (10 μL), sample (20 μL), and AChE solution (15 μL) were added to a 96-well microplate and incubated at room temperature for 10 min. Finally, the absorbance was detected with a spectrophotometer at 405 nm.
The acetylcholinesterase inhibitory effect was counted as follows (Asample and Acontrol represent the absorbance of the tested sample and control, respectively):Acetylcholinesterase inhibitory activity (%) = (Acontrol − Asample)/Acontrol × 100%

[8] = system: NO production in RAW 264.7 cells; test: Nitric oxide (NO) inhibition assay; format: cell-based, murine; details: Mus musculus
Procedure: In this experiment, the RAW 264.7 macrophage cell line was used. The cells were stored at −196 °C in liquid nitrogen. After thawing, the cells were cultured in DMEM at 37 °C and 5% CO2 supplemented with 10% FBS, […] L-glutamine, 1 mM sodium pyruvate, 100 μg/mL streptomycin, and 100 U/mL penicillin.
NO inhibition assay was slightly modified from the reported method. The day before the experiment, RAW 264.7 cells were seeded into 96-well plates with 2 × 10^4 cells per well. The cells were pretreated with the sample solution, and then incubated at 37 °C for 1 h. After incubation, the cells were treated with 100 ng/mL of LPS to induce an inflammatory response. After incubation at 37 °C for 20 h, 50 μL of the supernatant was transferred from each well to another 96-well plate and mixed with an equal volume of Griess reagent. Finally, the absorbance was acquired at 550 nm after 20 min of incubation.

[9] = system: LPS-induced iNOS expression in RAW 264.7 murine macrophages; test: Western blotting of LPS-induced iNOS expression; format: cell-based; details: 50 μM; LPS-induced RAW 264.7; Western blot
Procedure: Western blotting was conducted with the previous procedure. Cells were treated with different concentrations of compounds and 100 ng/mL of LPS for a day. After rinsing cells with cold PBS, proteins were harvested with radioimmunoprecipitation assay buffer (RIPA buffer) and stored at −20 °C for succeeding procedure. Proteins were separated on a 12.5% SDS-polyacrylamide gel and then electrophoretically transferred to a PVDF membrane. The membrane was soaked in 2% bovine serum albumin (BSA) blocking buffer for 2 h, then washed 2–3 times with TBST. Proteins were treated by particular primary antibodies and immersed overnight. The following day, PVDF membranes were washed with TBST to remove residual primary antibodies, and then immersed with secondary antibodies for 2 h. Then, enhanced chemiluminescence solution was coated on the membrane and visualized using an ImageQuant LAS 4000 Mini Biomolecular Imager (GE Healthcare, Marlborough, MA, USA). Finally, we quantified band density by ImageJ software 1.53a (BioTechniques, New York, NY, USA).

[10] = isolated compounds, read-out: IC50 AChE (converted)
[11] = RAW264.7, isolated components, LPS-treated RAW 264.7 cells, read-out: NO Inhibition IC50

T1 sequence (O42275 24-633): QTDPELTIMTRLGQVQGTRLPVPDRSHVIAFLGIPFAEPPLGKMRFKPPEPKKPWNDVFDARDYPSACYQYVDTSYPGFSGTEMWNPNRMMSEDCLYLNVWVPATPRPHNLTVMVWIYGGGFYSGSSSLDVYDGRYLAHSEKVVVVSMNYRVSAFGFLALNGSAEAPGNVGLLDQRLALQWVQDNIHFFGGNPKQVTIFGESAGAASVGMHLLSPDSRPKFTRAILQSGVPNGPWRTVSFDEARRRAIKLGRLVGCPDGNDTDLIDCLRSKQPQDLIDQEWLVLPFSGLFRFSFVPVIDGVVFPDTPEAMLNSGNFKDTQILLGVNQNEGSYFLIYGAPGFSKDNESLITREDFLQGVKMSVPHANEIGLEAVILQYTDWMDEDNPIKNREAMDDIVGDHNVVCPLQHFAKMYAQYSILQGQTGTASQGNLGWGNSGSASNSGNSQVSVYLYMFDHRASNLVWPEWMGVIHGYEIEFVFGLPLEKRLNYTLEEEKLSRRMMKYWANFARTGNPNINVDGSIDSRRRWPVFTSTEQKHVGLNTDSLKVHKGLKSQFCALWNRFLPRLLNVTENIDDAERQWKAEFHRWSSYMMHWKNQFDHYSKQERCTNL

Compound | AChE EF (enrichment factor) [1] [%] | iNOS EF (enrichment factor) [2] [%] | EC50 [3] [µM] | EC50 [4] [µM] | EC50 [5] [µM] | TE FRAP ([6]; isolated components) | further results
Oc1ccc(CCc2cc(O)cc(O)c2)cc1 [Dihydroresveratrol] | 0.08 | 0.62 |  |  |  |  | 
COc1c(O)cc2ccc3cc(O)ccc3c2c1OC [Nudol] | 29.56 | 24.39 |  |  |  |  | 
COc1cc(O)cc(CCc2cccc(O)c2)c1 [Batatasin III (3), batatasin III] | 31.87 | 27.18 | > 400 | 30.1 ± 1.7 | > 400 | 559.67 ± 51.49 ^c mM/g | TE FRAP ([6]; isolated components, listed as batatasin III): 559.67 ± 51.49 mM/g; IC50 (α-glucosidase): 723 ± 53.5 µM; IC50 [7, 10]: 258 ± 18.5 µM; IC50 [8, 11]: 51.3 ± 5.51 µM
COc1cc(CCc2cc(O)cc(O)c2)ccc1O [Tristin] | 5.83 | 0.95 |  |  |  |  | 
COc1ccc2c(c1)CCc1cc(O)cc(OC)c1-2 [Coelonin] | 2.00 | 5.09 |  |  |  |  | 
O=c1c(O)c(-c2ccc(O)c(O)c2)oc2cc(O)cc(O)c12 [Quercetin, quercetin, reference compound] |  |  |  |  |  |  | IC50 [8, 11]: 23.1 ± 1.43 µM; IC50 ([8]; RAW264.7, solvent extracts, LPS-treated RAW 264.7 cells, read-out: NO Inhibition IC50): 6.98 ± 0.43 µg/mL
COc1ccc(CCc2cc(OC)c(OC)c(OC)c2)cc1O [Erianin] | 0.23 | 1.72 |  |  |  |  | 
COc1cc(CCc2cc(OC)c(O)c(OC)c2)ccc1O [Dendrophenol (4), dendrophenol] | 59.48 | 65.11 | 11.6 ± 0.77 | 7.64 ± 0.63 | > 400 | 1686.53 ± 16.61 ^c mM/g | TE FRAP ([6]; isolated components, listed as dendrophenol): 1686.53 ± 16.61 mM/g; IC50 (α-glucosidase): 608 ± 48.2 µM; IC50 [7, 10]: 165 ± 13.2 µM; IC50 [8, 11]: 14.3 ± 3.17 µM; inhibition of iNOS expression [9]: 89.82%
O=C(/C=C/c1ccc(O)c(O)c1)O[C@@H]1C[C@](O)(C(=O)O)C[C@@H](O)[C@H]1O [Chlorogenic acid, chlorogenic acid, reference compound] |  |  |  |  |  |  | IC50 [7, 10]: 236 ± 15.9 µM; IC50 ([7]; solvent extracts, read-out: IC50 AChE (converted)): 214 µM
Cc1cc(C(C)(C)C)c(O)c(C(C)(C)C)c1 [BHT, butylated hydroxytoluene, reference compound] |  |  | 90.8 ± 5.65 | 53.7 ± 1.48 |  | 4355.95 ± 99.23 mM/g | SC50 DPPH ([3]; solvent extracts): 36.64 ± 2.22 µg/mL; SC50 ABTS ([4]; solvent extracts): 46.83 ± 0.44 µg/mL; TE FRAP ([6]; solvent extracts): 4296.98 ± 48.40 mM/g
Oc1ccc2c(c1)CCc1cc(O)cc(O)c1-2 [2,4,7-Trihydroxy-9,10-dihydrophenanthrene] | 1.32 | 0.91 |  |  |  |  | 
COc1cc(O)cc2ccc3cccc(O)c3c12 [Moscatin (2), moscatin] | 66.31 | 88.99 | 26.7 ± 1.63 | 10.3 ± 1.92 | > 400 | 1396.40 ± 57.03 ^c mM/g | TE FRAP ([6]; isolated components, listed as moscatin): 1396.40 ± 57.03 mM/g; IC50 (α-glucosidase): 478 ± 33.4 µM; IC50 [7]: 162 ± 16.5 µM; IC50 ([8]; RAW264.7, read-out: NO Inhibition IC50): 23.5 ± 3.16 µM; inhibition of iNOS expression [9]: 69.76%
O=c1cc(-c2ccc(O)c(O)c2)oc2cc(O[C@@H]3O[C@H](CO)[C@@H](O)[C@H](O)[C@H]3O)cc(O)c12 [Cynaroside, cynaroside, reference compound] |  |  |  |  | 50.6 ± 2.62 |  | SC50 Superoxide ([5]; solvent extracts): 112.76 ± 5.84 µg/mL
COc1cc(O)cc(CCc2ccc(O)c(OC)c2)c1 [Gigantol (1), gigantol] | 54.60 | 44.84 | 35.2 ± 1.34 | 12.2 ± 0.54 | > 400 | 1483.20 ± 63.49 ^c mM/g | TE FRAP ([6]; isolated components, listed as gigantol): 1483.20 ± 63.49 mM/g; IC50 (α-glucosidase): 470 ± 28.5 µM; IC50 [7, 10]: 176 ± 19.1 µM; IC50 [8, 11]: 63.7 ± 11.4 µM
